For test [1], the system named is NNK-induced lung tumorigenesis (pulmonary adenomas). The test is described as follows: NNK-induced lung tumorigenesis. The class given is in vivo, mice. Particulars: 20 mg/kg daily by injection; 10 μmol NNK i.p.; sixteen weeks. The protocol: The capacity of tobacco-specific nitrosamine 4-(methylnitrosamino)-1-(3-pyridyl)-1-butanone (NNK) to induce tumor incidence was recognized.
Every group had 20 mice. For treatment group, each mouse was gave free CUR and PK-CUR-NP by injection at dose of 20 mg/kg daily. For control group, each mouse was gave same volume of physiological saline. Three days later, mice were gave 10 μmol NNK (in 0.1 ml saline) by i.p. injection. Sixteen weeks after these treatments the mice were killed and pulmonary adenomas were counted. The statistical significance of bioassay data was determined by student's test.
Every group had 20 mice. For treatment group, each mouse was gave ELE and PK-ELE-NP by injection at dose of 20 mg/kg daily. For control group, each mouse was gave same volume of physiological saline. Three days later, mice were gave 10 μmol NNK (in 0.1 ml saline) by i.p. injection. Sixteen weeks after these treatments the mice were killed and pulmonary adenomas were counted. The statistical significance of bioassay data was determined by student's test.
Every group had 20 mice. For treatment group, each mouse was gave free CPT and PK-CPT-NP by injection at dose of 20 mg/kg daily. For control group, each mouse was gave same volume of physiological saline. Three days later, mice were gave 10 μmol NNK (in 0.1 ml saline) by i.p. injection. Sixteen weeks after these treatments the mice were killed and pulmonary adenomas were counted. The statistical significance of bioassay data was determined by student's test.

Test [2] deals with S180, ECS, HCS, ARS, U-14 and L615 transplanted tumor. The test is described as follows: Growth of transplanted tumors. Particulars: 20 mg/kg. The class given is in vivo, mice. The procedure:
Male mice, weight 20-22 g, were used in the experiment. 1×10^7 tumor cells were injected to mouse and PK-HHT-NP injected intraperitoneally began second day. All mice were sacrificed on the 12th days, isolated the tumor and weighed and calculated the inhibition rate of tumor weight.
Male mice, weight 20-22 g, were used in the experiment. 1×10^7 tumor cells were injected to mouse and CUR and PK-CUR-NP injected intraperitoneally began second day. All mice were sacrificed on the 12th days, isolated the tumor and weighed and calculated the inhibition rate of tumor weight.
Male mice, weight 20-22 g, were used in the experiment. 1×10^7 tumor cells were injected to mouse and ELE injected intraperitoneally began second day. All mice were sacrificed on the 12th days, isolated the tumor and weighed and calculated the inhibition rate of tumor weight.
Male mice, weight 20-22 g, were used in the experiment. 1×10^7 tumor cells were injected to mouse and CPT injected intraperitoneally began second day. All mice were sacrificed on the 12th days, isolated the tumor and weighed and calculated the inhibition rate of tumor weight.

The subject of a further test is HL-60. The experiment in a line: Inhibition of tumor cell proliferation, HL-60. The class given is cell-based, human. The settings on record: for Inhibition (%): 72 hours. The procedure:
Human leukemia cells (HL-60) were grown in RPMI Medium 1640 supplemented with 10% (v/v) heat-inactivated FBS (56° C. for 30 min) at 37° C. in a humidified 95% air/5% CO2 atmosphere. Cells were seeded at a level of 2×10^5 cells/ml. Cells were allowed to attain a maximum density of 1.2×10^6 cells/ml before being passed by dilution into fresh medium to a concentration of 2×10^5 cells/ml.
Cell lines were routinely cultured in the RPMI1640 medium supplemented 20% fetal calf serum. The experiment was carried out in 96 microplate, each well had 5×10^5 cells and given desired concentration of drug (1 μg/ml). Then the plate was incubated at 37° C. in an atmosphere of humidified air enriched with 5 percent carbon dioxide for 72 hours. Inhibition percent rate of tumor cell proliferation was obtained according to the bellow formula. [formula]
Human tumor cell lines: Hela leukemia HL-60, malignant melanocarcinoma B16, oral epidermoid carcinoma (KB), lung carcinoma (A549), breast carcinoma MCF-7, adenocarcinoma of stomach.
Animal tumor cell lines: Walker carcinoma, LLC-WRC-256, malignant melanoma (RMMI 1846), 3T3, and S-180 sarcoma (CCRF-180). All lines were routinely cultured in the RPMI1640 medium supplemented 20% fetal calf serum. The experiment was carried out in 96 microplate, each well had 5×10^5 cells and given desired concentration of 1 μg/ml (1×10^−6 g/ml) drug. Then the plate was incubated at 37° C. in an atmosphere of humidified air enriched with 5 percent carbon dioxide for 72 hours.
Inhibition percent rate of tumor cell proliferation was obtained according to the bellow formula. [formula] […]

What is called inhibition is the drop in the measured response relative to a control, in per cent.

With `C=C1C[C@@]2(O)O[C@@]3(C[C@H]2C(C)C)[C@@H](C)CC[C@@H]13` [CUR, Curcumol], in test [1], the “Tumor incidence (%)” value was determined as 35.8 ± 5.8%. In test [2], the “growth of transplanted tumor” value is on record as “could inhibit the growth”. The “Inhibition (%)” value with HL-60 (50 ng/ml) came out at 76.8 ± 12.8%.
Take `CC[C@@]1(O)C(=O)OCc2c1cc1n(c2=O)Cc2cc3ccccc3nc2-1` [CPT, Camptothecin]: the “Tumor incidence (%)” value in test [1] is listed as 36.2 ± 6.2%. The “growth of transplanted tumor” value in test [2] is “could inhibit the growth”. Further, testing at 0.05 µg/mL with HL-60 (Homo sapiens, HL-60, 72 h, 50 ng/ml) gave an inhibition of 70.8 ± 11.2%.
Take `COC(=O)C[C@](O)(CCCC(C)(C)O)C(=O)O[C@@H]1C(OC)=C[C@]23CCCN2CCc2cc4c(cc2[C@H]13)OCO4` [HHT, Homoharringtonine]: the inhibition at 1 µg/mL came out at 70.8 ± 9% in the test on HL-60 (Homo sapiens, HL-60, 72 h, 1 μg/ml) and 70.5 ± 8% in the test with HL-60 (Homo sapiens, HL-60, 72 h, Example 23, 1 μg/ml, NP dose equivalent of free HHT).
In the case of Eelemene, the “Tumor incidence (%)” value in test [1] was 34.8 ± 6.2%. The “growth of transplanted tumor” value in test [2] is on record as “could inhibit the growth”. In addition, the “Inhibition (%)” value in the test with HL-60 (50 ng/ml) is given as 78.9 ± 12.5%.
